From patent US20120252741A1, “NOVEL SEMI-SYNTHETIC GLYCOPEPTIDES AS ANTIBACTERIAL AGENTS” (priority 2008, published 2012)

Experiments:
Type in all cases: cell-based
[1] = tested on: Staphylococcus epidermidis 835; experiment: MIC, broth microdilution, SE 835; settings: Staphylococcus epidermidis, 835; Table 2; in the presence of 0.002% Polysorbate 80; class symbols; read-out: MIC SE 835
Description: (§1) Antibacterial activity in vitro is investigated by broth microdilution method in Meuller-Hinton broth as recommended by NCCLS. All strains tested are clinical isolates either sensitive or resistant to natural glycopeptides. MIC values were determined using the CLSI-recommended broth microdilution procedure (Clinical and Laboratory Standards Institute, Methods for Dilution Antimicrobial Susceptibility Tests for Bacteria That Grow Aerobically; Approved Standard-Seventh Edition.). Automated liquid handlers (Multidrop 384, Labsystems, Helsinki, Finland; Biomek 2000 and Multimek 96, Beckman Coulter, Fullerton Calif.) were used to conduct serial dilutions and liquid transfers. The MIC value for vancomycin is given for comparison. The abbreviations for organisms tested are as follow: SA 100—Staphylococcus aureus 100 (ATCC 29213); SA 757—Staphylococcus aureus 757 (MRSA); SA 2012—Staphylococcus aureus 2012 (VISA); SE 835—Staphylococcus epidermidis 835; SE 831—Staphylococcus epidermidis 831 (MRSE); EFc 101—Enterococcus faecalis 101 (ATCC 29212); EFc 848—Enterococcus faecalis 848 (VRE, Van A); EFcm 800—Enterococcus faecium 800; EFcm 752—Enterococcus faecium 752 (VRE, Van A); SPNE 1195—Streptococcus pneumoniae 1195 (ATCC 49619); SPY 712—Streptococcus pyogenes 712.

[2] = tested on: Enterococcus faecalis 101 (ATCC 29212); experiment: MIC, broth microdilution, EFc 101; settings: Enterococcus faecalis, ATCC29212; Table 2; in the presence of 0.002% Polysorbate 80; class symbols; read-out: MIC E FC 101
Description: as §1

[3] = tested on: Streptococcus pyogenes 712; experiment: MIC, broth microdilution, SPY 712; settings: Streptococcus pyogenes, 712; Table 2; in the presence of 0.002% Polysorbate 80; class symbols; read-out: MIC S PYO 712
Description: as §1

[4] = tested on: Staphylococcus aureus 100 (ATCC 29213); experiment: MIC, broth microdilution, SA 100; settings: Staphylococcus aureus, ATCC29213; Table 2; in the presence of 0.002% Polysorbate 80; class symbols; read-out: MIC SA 100
Description: as §1

[5] = tested on: Enterococcus faecalis 848 (VRE, Van A); experiment: MIC, broth microdilution, EFc 848; settings: Table 2; VRE, Van A; in the presence of 0.002% Polysorbate 80; class symbols; read-out: MIC E FC 848
Description: as §1

[6] = tested on: Staphylococcus aureus 2012 (VISA); experiment: MIC, broth microdilution, SA 2012; settings: Table 2, in the presence of 0.002% Polysorbate 80, class symbols, read-out: MIC SA 2012
Description: as §1

[7] = tested on: Staphylococcus aureus 757 (MRSA); experiment: MIC, broth microdilution, SA 757; settings: Table 2, in the presence of 0.002% Polysorbate 80, class symbols, read-out: MIC SA 757
Description: as §1

[8] = tested on: Streptococcus pneumoniae 1195 (ATCC 49619); experiment: MIC, broth microdilution, SPNE 1195; settings: Streptococcus pneumoniae, ATCC49619; Table 2; in the presence of 0.002% Polysorbate 80; class symbols; read-out: MIC S PNE 1195
Description: as §1

Enterococcus faecium 800 = experiment: MIC, broth microdilution, EFcm 800; settings: Enterococcus faecium, 800; Table 2; in the presence of 0.002% Polysorbate 80; class symbols; read-out: MIC E FCM 800
Description: as §1

[9] = tested on: Enterococcus faecium 752 (VRE, Van A); experiment: MIC, broth microdilution, EFcm 752; settings: Table 2; VRE, Van A; in the presence of 0.002% Polysorbate 80; class symbols; read-out: MIC E FCM 752
Description: as §1

[10] = tested on: Staphylococcus epidermidis 831 (MRSE); experiment: MIC, broth microdilution, SE 831; settings: Staphylococcus epidermidis, Table 2, in the presence of 0.002% Polysorbate 80, class symbols, read-out: MIC SE 831
Description: as §1

| Compound | MIC [1] [µg/mL] | MIC [2] [µg/mL] | MIC [3] [µg/mL] | MIC [4] [µg/mL] | MIC [5] [µg/mL] | MIC [6] [µg/mL] | MIC [7] [µg/mL] | MIC [8] [µg/mL] | MIC (Enterococcus faecium 800) [µg/mL] | MIC [9] [µg/mL] | MIC [10] [µg/mL] |
| --- | --- | --- | --- | --- | --- | --- | --- | --- | --- | --- | --- |
| CNCCOc1cc(C(=O)NC(=O)C[C@@H]2NC(=O)[C@H](NC(=O)[C@@H](CC(C)C)NC)[C@H](O)c3ccc(c(Cl)c3)Oc3cc4cc(c3O[C@@H]3O[C@H](CO)[C@@H](O)[C@H](O)[C@H]3O)Oc3ccc(cc3Cl)[C@@H](O)[C@@H]3NC(=O)[C@H](NC(=O)[C@@H]4NC2=O)c2ccc(O)c(c2)-c2c(O)cc(O)cc2[C@@H](C(=O)NC2C4CC5CC(C4)CC2C5)NC3=O)cc(OCCNC)c1OCCNC (some centres unmarked) [Compound 162] | 0.5 to 1 | 1 to 2 | 0.01 to 0.5 | 2 to 4 | > 16 | 2 to 4 | 1 to 2 | 1 to 2 | 0.5 to 1 | 8 to 16 | 0.01 to 0.5 |
| CCNCCOCc1cc(OCCNCC)cc(C(=O)NC(=O)C[C@@H]2NC(=O)[C@H](NC(=O)[C@@H](CC(C)C)NC)[C@H](O)c3ccc(c(Cl)c3)Oc3cc4cc(c3O[C@@H]3O[C@H](CO)[C@@H](O)[C@H](O)[C@H]3O[C@H]3C[C@](C)(N)[C@H](O)[C@H](C)O3)Oc3ccc(cc3Cl)[C@@H](O)[C@@H]3NC(=O)[C@H](NC(=O)[C@@H]4NC2=O)c2ccc(O)c(c2)-c2c(O)cc(O)cc2[C@@H](C(=O)NC2C4CC5CC(C4)CC2C5)NC3=O)c1 (some centres unmarked) [Compound 164] | 0.01 to 0.5 | 0.01 to 0.5 | 0.01 to 0.5 | 0.01 to 0.5 | > 16 | 1 to 2 | 0.01 to 0.5 | 0.01 to 0.5 | 0.01 to 0.5 | 8 to 16 | 0.01 to 0.5 |
| CN[C@H](CC(C)C)C(=O)N[C@H]1C(=O)N[C@@H](CC(=O)NC(=O)c2ccc(OCCN)c(OCCN)c2)C(=O)N[C@H]2C(=O)N[C@H]3C(=O)N[C@H](C(=O)N[C@H](C(=O)NC4C5CC6CC(C5)CC4C6)c4cc(O)cc(O)c4-c4cc3ccc4O)[C@H](O)c3ccc(c(Cl)c3)Oc3cc2cc(c3O[C@@H]2O[C@H](CO)[C@@H](O)[C@H](O)[C@H]2O[C@H]2C[C@](C)(N)[C@H](O)[C@H](C)O2)Oc2ccc(cc2Cl)[C@H]1O (some centres unmarked) [Compound 165] | 0.5 to 1 | 0.01 to 0.5 | 0.01 to 0.5 | 0.01 to 0.5 | > 16 | 1 to 2 | 0.01 to 0.5 | 0.01 to 0.5 | 0.01 to 0.5 | 2 to 4 | 0.01 to 0.5 |
| CN[C@H](CC(C)C)C(=O)N[C@H]1C(=O)N[C@@H](CC(=O)NC(=O)c2ccc(OCCN)c(OCCN)c2)C(=O)N[C@H]2C(=O)N[C@H]3C(=O)N[C@H](C(=O)N[C@H](C(=O)NC4C5CC6CC(C5)CC4C6)c4cc(O)cc(O)c4-c4cc3ccc4O)[C@H](O)c3ccc(c(Cl)c3)Oc3cc2cc(c3O[C@@H]2O[C@H](CO)[C@@H](O)[C@H](O)[C@H]2O)Oc2ccc(cc2Cl)[C@H]1O (some centres unmarked) [Compound 159] | 0.5 to 1 | 0.5 to 1 | 0.01 to 0.5 | 0.5 to 1 | > 16 | 0.5 to 1 | 0.5 to 1 | 0.5 to 1 | 0.01 to 0.5 | 4 to 8 | 0.01 to 0.5 |
